Experiment [1] deals with Beta-1 adrenergic receptor (Homo sapiens, UniProt P08588). Nature of the experiment: DRUGMATRIX: Adrenergic beta1 radioligand binding (ligand: [125I] Cyanopindolol). The class given is cell membranes, CHO-K1, Membrane. The settings on record: Not Active = under 50% inhibition at 10 µM; for Ki: read-out: Ki.
In experiment [2] the target is 5-hydroxytryptamine receptor 2B (Homo sapiens, UniProt P41595). The class given is cell membranes, CHO-K1, Membrane. To be noted: for Ki: read-out: Ki. As to all read-outs here: in other assays of this panel Not Active means under 50% inhibition at 10 µM.
Chain of 5-hydroxytryptamine receptor 2B (P41595 whole entry): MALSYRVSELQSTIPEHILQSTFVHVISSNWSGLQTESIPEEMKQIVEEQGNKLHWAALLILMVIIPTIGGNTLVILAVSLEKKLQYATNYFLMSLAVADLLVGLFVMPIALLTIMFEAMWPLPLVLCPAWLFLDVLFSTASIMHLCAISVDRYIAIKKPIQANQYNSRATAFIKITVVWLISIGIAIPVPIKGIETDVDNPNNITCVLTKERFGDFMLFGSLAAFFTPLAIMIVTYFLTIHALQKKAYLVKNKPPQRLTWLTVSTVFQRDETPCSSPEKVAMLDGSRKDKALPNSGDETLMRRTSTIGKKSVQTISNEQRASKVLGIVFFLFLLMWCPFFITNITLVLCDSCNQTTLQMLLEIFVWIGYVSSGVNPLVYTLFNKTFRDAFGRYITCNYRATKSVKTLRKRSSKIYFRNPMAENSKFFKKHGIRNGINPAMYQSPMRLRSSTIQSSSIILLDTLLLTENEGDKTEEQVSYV
The target of experiment [3] is 5-hydroxytryptamine receptor 4 (Cavia porcellus, UniProt O70528). The class given is cell membranes, Dunkin-Hartley, Striatum, Membrane. Also: in other assays of this panel Not Active means under 50% inhibition at 10 µM.
Chain of 5-hydroxytryptamine receptor 4 (O70528 whole entry): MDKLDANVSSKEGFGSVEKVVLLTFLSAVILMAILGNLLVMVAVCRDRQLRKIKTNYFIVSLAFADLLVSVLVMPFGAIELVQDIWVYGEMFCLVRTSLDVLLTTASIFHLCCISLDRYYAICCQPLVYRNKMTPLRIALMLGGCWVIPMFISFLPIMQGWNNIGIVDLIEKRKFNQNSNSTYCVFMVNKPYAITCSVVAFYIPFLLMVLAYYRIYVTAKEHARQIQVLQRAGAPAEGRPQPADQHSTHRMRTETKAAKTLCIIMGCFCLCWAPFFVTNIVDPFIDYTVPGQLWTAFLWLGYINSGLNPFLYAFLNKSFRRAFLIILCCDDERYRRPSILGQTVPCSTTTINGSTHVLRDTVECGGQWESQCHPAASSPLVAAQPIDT
Experiment [4] deals with C-C chemokine receptor type 2 (Homo sapiens, UniProt P41597). The experiment is classed as cell membranes, Membrane. The settings on record: cho-k1.
Chain of C-C chemokine receptor type 2 (P41597 whole entry): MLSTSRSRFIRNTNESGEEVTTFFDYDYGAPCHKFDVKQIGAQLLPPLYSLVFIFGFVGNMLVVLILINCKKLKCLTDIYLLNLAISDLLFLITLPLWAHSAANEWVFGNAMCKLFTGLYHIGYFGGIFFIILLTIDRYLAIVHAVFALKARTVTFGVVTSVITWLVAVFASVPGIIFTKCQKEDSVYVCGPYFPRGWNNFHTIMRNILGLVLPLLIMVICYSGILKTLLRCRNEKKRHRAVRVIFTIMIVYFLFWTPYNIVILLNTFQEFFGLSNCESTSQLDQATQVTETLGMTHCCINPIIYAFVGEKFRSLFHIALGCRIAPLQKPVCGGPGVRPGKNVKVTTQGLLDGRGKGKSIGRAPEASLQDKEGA
Experiment [5] has as its target T1, Polyunsaturated fatty acid lipoxygenase ALOX15 (Oryctolagus cuniculus, UniProt P12530).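 Also: inhibition of 15-lipoxygenase enzyme activity measured with linoleic acid as the substrate; in other assays of this panel Not Active means under 50% inhibition at 10 µM.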
T1 sequence (P12530 whole entry): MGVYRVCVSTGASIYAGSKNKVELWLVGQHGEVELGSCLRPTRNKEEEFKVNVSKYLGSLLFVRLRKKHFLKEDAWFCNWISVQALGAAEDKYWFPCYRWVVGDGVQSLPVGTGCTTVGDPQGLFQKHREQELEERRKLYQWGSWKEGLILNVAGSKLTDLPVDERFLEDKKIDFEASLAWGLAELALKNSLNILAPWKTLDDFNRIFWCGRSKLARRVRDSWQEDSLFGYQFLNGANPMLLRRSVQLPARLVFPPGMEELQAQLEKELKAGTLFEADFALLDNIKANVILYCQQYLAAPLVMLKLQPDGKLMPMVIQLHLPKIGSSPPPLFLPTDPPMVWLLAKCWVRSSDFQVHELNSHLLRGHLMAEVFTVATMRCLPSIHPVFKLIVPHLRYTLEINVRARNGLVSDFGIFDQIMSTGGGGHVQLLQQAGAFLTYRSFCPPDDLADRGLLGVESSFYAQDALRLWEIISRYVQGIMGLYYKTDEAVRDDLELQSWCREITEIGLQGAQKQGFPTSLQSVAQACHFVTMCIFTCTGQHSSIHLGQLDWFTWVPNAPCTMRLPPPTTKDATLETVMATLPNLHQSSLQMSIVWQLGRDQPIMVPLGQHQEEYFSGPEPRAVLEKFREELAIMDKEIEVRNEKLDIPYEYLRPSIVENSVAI
Nature of the experiment: biochemical. The class given is tissue-based, Reticulocytes.

In a further experiment the target is Estrogen receptor beta (Homo sapiens, UniProt Q92731). To be noted: sf9. Also: in other assays of this panel Not Active means under 50% inhibition at 10 µM.
Chain of Estrogen receptor beta (Q92731 whole entry): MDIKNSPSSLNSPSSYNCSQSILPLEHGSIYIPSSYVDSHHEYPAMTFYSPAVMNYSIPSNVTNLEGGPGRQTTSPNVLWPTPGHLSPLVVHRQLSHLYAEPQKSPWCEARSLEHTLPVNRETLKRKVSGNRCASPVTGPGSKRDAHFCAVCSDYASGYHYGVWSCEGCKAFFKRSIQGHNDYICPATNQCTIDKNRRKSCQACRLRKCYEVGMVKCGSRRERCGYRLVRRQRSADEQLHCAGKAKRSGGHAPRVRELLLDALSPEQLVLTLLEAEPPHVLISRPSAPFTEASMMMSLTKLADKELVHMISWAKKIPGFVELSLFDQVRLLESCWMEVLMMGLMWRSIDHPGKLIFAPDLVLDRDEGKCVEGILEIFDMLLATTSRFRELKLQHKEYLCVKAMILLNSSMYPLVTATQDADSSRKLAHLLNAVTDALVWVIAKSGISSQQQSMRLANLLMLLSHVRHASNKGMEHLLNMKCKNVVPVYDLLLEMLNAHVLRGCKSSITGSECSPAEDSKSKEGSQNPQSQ

Chain of Beta-1 adrenergic receptor (P08588 whole entry): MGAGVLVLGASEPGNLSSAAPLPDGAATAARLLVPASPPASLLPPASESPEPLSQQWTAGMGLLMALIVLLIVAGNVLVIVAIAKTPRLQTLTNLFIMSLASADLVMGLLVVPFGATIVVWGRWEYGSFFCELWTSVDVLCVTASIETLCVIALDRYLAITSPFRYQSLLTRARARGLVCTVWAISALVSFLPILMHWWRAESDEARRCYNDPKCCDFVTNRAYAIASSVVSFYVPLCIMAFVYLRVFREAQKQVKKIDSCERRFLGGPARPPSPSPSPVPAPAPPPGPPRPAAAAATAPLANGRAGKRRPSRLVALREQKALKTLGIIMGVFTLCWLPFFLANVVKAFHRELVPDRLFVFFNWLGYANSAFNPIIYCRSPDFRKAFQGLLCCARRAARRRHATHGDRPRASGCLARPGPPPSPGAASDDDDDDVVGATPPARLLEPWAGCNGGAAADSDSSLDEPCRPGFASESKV

One may read the IC50 as the concentration needed to halve the response being measured. For `CCC1(CCC(C)C)C(=O)NC(=O)NC1=O` [AMOBARBITAL], the concentration for half-maximal inhibition (IC50) entry (in experiment [1] (cho-k1); in experiment [2] (cho-k1); in experiment [3]; in experiment [4]; in experiment [5] (reticulocytes); on Estrogen receptor beta) was “Not Active” each time.
For the compound `COc1ccc(C2C(=O)c3ccccc3C2=O)cc1` [ANISINDIONE], the IC50 entry (in experiment [1] (cho-k1); in experiment [2] (cho-k1); in experiment [3]; in experiment [4]; in experiment [5] (reticulocytes); against Estrogen receptor beta) was “Not Active” each time.
For `O=C1O[C@H]([C@@H](O)CO)C(O)=C1O` [ASCORBIC ACID], the IC50 entry (in experiment [1] (cho-k1); in experiment [2] (cho-k1); in experiment [3]; in experiment [4]; in experiment [5] (reticulocytes); against Estrogen receptor beta) was “Not Active” in each case.
Regarding `CN1[C@@H]2CC[C@H]1C[C@@H](OC(=O)C(CO)c1ccccc1)C2` (stereo partly drawn) [ATROPINE], the IC50 result (in experiment [1] (cho-k1); in experiment [2] (cho-k1); in experiment [3]; in experiment [4]; in experiment [5] (reticulocytes); on Estrogen receptor beta) was “Not Active” each time.
Turning to `CC(C(=O)O)c1ccc2oc(-c3ccc(Cl)cc3)nc2c1` (stereo not drawn) [BENOXAPROFEN], the IC50 result (in experiment [1] (cho-k1); in experiment [2] (cho-k1); in experiment [3]; in experiment [4]; in experiment [5] (reticulocytes); against Estrogen receptor beta) was “Not Active” each time.
Take `CC(=O)Oc1ccc(C(c2ccc(OC(C)=O)cc2)c2ccccn2)cc1` [BISACODYL]: the 50% inhibitory concentration (IC50) result (in experiment [1] (cho-k1); in experiment [2] (cho-k1); in experiment [3]; in experiment [4]; in experiment [5] (reticulocytes); against Estrogen receptor beta) was “Not Active” each time.
For orientation: Ki means the equilibrium dissociation constant of an inhibitor or competing ligand from its target. As to `Cc1cc2c(OCC(CNC(C)(C)C)OC(=O)c3ccccc3)cccc2[nH]1` (stereo not drawn) [BOPINDOLOL], the IC50 in experiment [1] (read-out: IC50) was 0.047 µM; in experiment [2] (read-out: IC50), 1.52 µM; in experiment [3] it was “Not Active”; in experiment [4] it was “Not Active”; in experiment [5] (reticulocytes), “Not Active”; on Estrogen receptor beta, “Not Active”. Moreover, the Ki in experiment [1] was found to be 0.027 µM; in experiment [2] it was 0.969 µM.
`Brc1c(NC2=NCCN2)ccc2nccnc12` [BRIMONIDINE]: the IC50 entry (in experiment [1] (cho-k1); in experiment [2] (cho-k1); in experiment [3]; in experiment [4]; in experiment [5] (reticulocytes); against Estrogen receptor beta) was “Not Active” in each case.
On to `CN(C)[C@@H]1C(O)=C(C(N)=O)C(=O)[C@@]2(O)C(O)=C3C(=O)c4c(O)ccc(Cl)c4[C@@](C)(O)[C@H]3C[C@@H]12` [CHLORTETRACYCLINE], for which the IC50 entry (in experiment [1] (cho-k1); in experiment [2] (cho-k1); in experiment [3]; in experiment [4]; in experiment [5] (reticulocytes); on Estrogen receptor beta) was “Not Active” in each case.
`CN/C(=N\CCSCc1nc[nH]c1C)NC#N` [CIMETIDINE]: the half-inhibitory concentration (IC50) entry (in experiment [1] (cho-k1); in experiment [2] (cho-k1); in experiment [3]; in experiment [4]; in experiment [5] (reticulocytes); against Estrogen receptor beta) was “Not Active” in each case.
On to `CCC(=O)O[C@]1(C(=O)CCl)[C@@H](C)C[C@H]2[C@@H]3CCC4=CC(=O)C=C[C@]4(C)[C@@]3(F)[C@@H](O)C[C@@]21C` [CLOBETASOL PROPIONATE], for which the half-maximal inhibitory concentration (IC50) entry (in experiment [1] (cho-k1); in experiment [2] (cho-k1); in experiment [3]; in experiment [4]; in experiment [5] (reticulocytes); against Estrogen receptor beta) was “Not Active” throughout.
With `O=C1CN=C(c2ccccc2Cl)c2cc([N+](=O)[O-])ccc2N1` [CLONAZEPAM], the 50% inhibitory concentration (IC50) result (in experiment [1] (cho-k1); in experiment [2] (cho-k1); in experiment [3]; in experiment [4]; in experiment [5] (reticulocytes); against Estrogen receptor beta) was “Not Active” each time.
On to `C[C@@H]1C[C@H]2[C@@H]3CCC4=CC(=O)C=C[C@]4(C)[C@@]3(F)[C@@H](O)C[C@]2(C)[C@H]1C(=O)CO` [DESOXIMETASONE], for which the IC50 result (in experiment [1] (cho-k1); in experiment [2] (cho-k1); in experiment [3]; in experiment [4]; in experiment [5] (reticulocytes); at Estrogen receptor beta) was “Not Active” each time.
On to `C[C@@H]1CC[C@@]2(OC1)O[C@H]1[C@@H](O)[C@H]3[C@@H]4CC[C@H]5C[C@@H](O[C@@H]6O[C@H](CO)[C@H](O[C@@H]7O[C@H](CO)C(O)[C@H](O[C@@H]8OC[C@@H](O)[C@H](O)[C@H]8O)[C@H]7O[C@@H]7O[C@H](CO)[C@H](O)[C@H](O[C@@H]8O[C@H](CO)[C@@H](O)[C@H](O)[C@H]8O)[C@H]7O)[C@H](O)[C@H]6O)[C@H](O)C[C@]5(C)[C@H]4CC[C@]3(C)[C@H]1[C@@H]2C` (stereo partly drawn) [DIGITONIN], for which the IC50 result (in experiment [1] (cho-k1); in experiment [2] (cho-k1); in experiment [3]; in experiment [4]; in experiment [5] (reticulocytes); at Estrogen receptor beta) was “Not Active” each time.
On to `C[C@H]1O[C@@H](n2cc(F)c(=O)[nH]c2=O)[C@H](O)[C@@H]1O` [DOXIFLURIDINE], for which the IC50 result (in experiment [1] (cho-k1); in experiment [2] (cho-k1); in experiment [3]; in experiment [4]; in experiment [5] (reticulocytes); at Estrogen receptor beta) was “Not Active” throughout.
Regarding `Cn1c(=O)c2c(ncn2CC(O)CO)n(C)c1=O` (stereo not drawn) [DYPHYLLINE], the IC50 result (in experiment [1] (cho-k1); in experiment [2] (cho-k1); in experiment [3]; in experiment [4]; in experiment [5] (reticulocytes); at Estrogen receptor beta) was “Not Active” each time.
Take `C[C@@H](CO)NC(=O)[C@@H]1C=C2c3cccc4[nH]cc(c34)C[C@H]2N(C)C1` [ERGONOVINE]: the IC50 result is “Not Active” in experiment [1] (cho-k1); 0.00414 µM in experiment [2] (read-out: IC50); “Not Active” in experiment [3]; “Not Active” in experiment [4]; “Not Active” in experiment [5] (reticulocytes); “Not Active” against Estrogen receptor beta. Besides, the Ki in experiment [2] worked out at 0.00263 µM.
As to `COC(=O)CCc1ccc(OCC(O)CNC(C)C)cc1` (stereo not drawn) [ESMOLOL], the IC50 in experiment [1] (read-out: IC50) is 0.197 µM; in experiment [2] (cho-k1), “Not Active”; in experiment [3], “Not Active”; in experiment [4], “Not Active”; in experiment [5] (reticulocytes) it was “Not Active”; against Estrogen receptor beta, “Not Active”. Moreover, in experiment [1], the Ki was 0.114 µM.
For the compound `C#C[C@]1(OC(C)=O)CC[C@H]2[C@@H]3CCC4=C[C@@H](OC(C)=O)CC[C@@H]4[C@H]3CC[C@@]21C` [ETHYNODIOL DIACETATE], the IC50 entry (in experiment [1] (cho-k1); in experiment [2] (cho-k1); in experiment [3]; in experiment [4]; in experiment [5] (reticulocytes); on Estrogen receptor beta) was “Not Active” throughout.
Take `COc1cc([C@@H]2c3cc4c(cc3[C@@H](O[C@@H]3O[C@@H]5CO[C@@H](C)O[C@H]5[C@H](O)[C@H]3O)[C@H]3COC(=O)[C@H]23)OCO4)cc(OC)c1O` [ETOPOSIDE]: the 50% inhibitory concentration (IC50) result in experiment [1] (cho-k1) was “Not Active”; in experiment [2] (cho-k1), “Not Active”; in experiment [3], “Not Active”; in experiment [4] it was “Not Active”; in experiment [5] (read-out: IC50) it was 3.19 µM; at Estrogen receptor beta, “Not Active”.
For the compound `CC(C(=O)O)c1cccc(Oc2ccccc2)c1` (stereo not drawn) [FENOPROFEN], the IC50 result (in experiment [1] (cho-k1); in experiment [2] (cho-k1); in experiment [3]; in experiment [4]; in experiment [5] (reticulocytes); against Estrogen receptor beta) was “Not Active” in each case.
Turning to `COc1ccc2c3c1O[C@H]1C[C@@H](O)C=C[C@@]31CCN(C)C2` [GALANTAMINE], the IC50 result (in experiment [1] (cho-k1); in experiment [2] (cho-k1); in experiment [3]; in experiment [4]; in experiment [5] (reticulocytes); at Estrogen receptor beta) was “Not Active” in each case.
Consider `Nc1ccn([C@@H]2O[C@H](CO)[C@@H](O)C2(F)F)c(=O)n1` [GEMCITABINE], for which the IC50 result (in experiment [1] (cho-k1); in experiment [2] (cho-k1); in experiment [3]; in experiment [4]; in experiment [5] (reticulocytes); against Estrogen receptor beta) was “Not Active” each time.
For the compound `CC(=O)[C@@]1(O)CC[C@H]2[C@@H]3CCC4=CC(=O)CC[C@]4(C)[C@H]3CC[C@@]21C` [HYDROXYPROGESTERONE], the IC50 result (in experiment [1] (cho-k1); in experiment [2] (cho-k1); in experiment [3]; in experiment [4]; in experiment [5] (reticulocytes); on Estrogen receptor beta) was “Not Active” throughout.

(Values after ChEMBL document CHEMBL1909046, “DrugMatrix in vitro pharmacology data”.)
